Among the test systems are OVCAR-8; UACC-62; T47D; SNB-75; LOX IMVI; CCRF-CEM; HOP-62; OVCAR-3; ACHN; IGROV-1; K562; NCI-H460; M14; HL-60; A549; SK-MEL-2; HCT-116; KM12; A498.
What all share (assay): NCI-60 cell line screen, 48 h

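96-well plates; 48 h exposure; 5 concentrations. Endpoints by linear interpolation between flanking doses. Not reached: highest tested concentration assigned. At the GI50, growth is halved.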 Calls of active or inactive are those of the source. Rule as the data show it: active = GI50 up to about 1.1 µM and inactive = higher.

As to `O=[N+]([O-])c1cc(-[n+]2cc([O-])on2)ccc1Cl`, the GI50 was 20.6 µM (inactive) in the assay with OVCAR-8; 27.8 µM (inactive) in the assay with UACC-62; 16.4 µM (inactive) in the assay on T47D; 25.8 µM (inactive) in the assay with SNB-75; 17.9 µM (inactive) in the assay on LOX IMVI; 23.6 µM (inactive) with CCRF-CEM. For the same compound, the GI50 was 15.3 µM (inactive) in the assay on HOP-62; 37.3 µM (inactive) in the assay with OVCAR-3; 16 µM (inactive) in the assay with ACHN; 24.3 µM (inactive) with IGROV-1; 42.4 µM (inactive) in the assay on K562; 34.2 µM (inactive) in the assay with NCI-H460. The GI50 in the assay on M14 was 15.5 µM (inactive); in the assay on HL-60, 35 µM (inactive); in the assay on A549 it was 31 µM (inactive); with SK-MEL-2, 21.5 µM (inactive); in the assay with HCT-116, 16.1 µM (inactive); in the assay with KM12, 22 µM (inactive).
As to `Cc1ccc(S(=O)(=O)NC(=O)NC(CC(N)=O)C(=O)O)cc1` (configuration not stated), the GI50 in the assay with OVCAR-8, in the assay on UACC-62, with T47D, with SNB-75, with LOX IMVI and with CCRF-CEM was > 100 µM (inactive) in each case. The GI50 with HOP-62, with ACHN, in the assay with IGROV-1, in the assay with K562, in the assay on NCI-H460 and with M14 was > 100 µM (inactive) throughout. Besides, the GI50 with HL-60, with A549, in the assay on SK-MEL-2, in the assay with HCT-116 and in the assay with KM12 was > 100 µM (inactive) throughout.
As for `Cc1cc(C(=O)CBr)c(CN2C(=O)c3ccccc3C2=O)c(=O)n1C`, the GI50 in the assay on OVCAR-8 is 18.1 µM (inactive); with UACC-62, 16.6 µM (inactive); with T47D, 25.5 µM (inactive); in the assay on SNB-75 it was 22.8 µM (inactive); with LOX IMVI, 12.9 µM (inactive); with CCRF-CEM, 2.92 µM (inactive). Also, the GI50 was 47.4 µM (inactive) in the assay on HOP-62; 17.2 µM (inactive) in the assay with OVCAR-3; 8.47 µM (inactive) in the assay on ACHN; 26.9 µM (inactive) with IGROV-1; 3.19 µM (inactive) in the assay with K562; 26.3 µM (inactive) in the assay with NCI-H460. Further, the GI50 with M14 is 43.1 µM (inactive); in the assay on HL-60, 5.09 µM (inactive); with A549 it was 18.8 µM (inactive); in the assay with SK-MEL-2, 27 µM (inactive); with HCT-116 it was 66.1 µM (inactive); in the assay with KM12 it was 19.5 µM (inactive).
For the compound `O=S1(=O)c2ccccc2NC(=S)CC1c1ccccc1` (configuration not stated), the GI50 is 72.9 µM (inactive) in the assay with OVCAR-8; > 100 µM (inactive) with UACC-62; > 100 µM (inactive) in the assay with T47D; > 100 µM (inactive) in the assay with SNB-75; > 100 µM (inactive) in the assay with LOX IMVI; > 100 µM (inactive) with CCRF-CEM. The GI50 in the assay on HOP-62, with OVCAR-3, in the assay on ACHN, in the assay with IGROV-1, with K562 and with NCI-H460 was > 100 µM (inactive) in each case. Moreover, the GI50 in the assay on M14, in the assay with HL-60, in the assay with A549, in the assay with HCT-116 and with KM12 was > 100 µM (inactive) in each case.
With `CC(=O)O[C@@]12[C@@H]3O[C@@]4(O)C[C@]5(C)[C@H]6C[C@@](C(C)C)(O[C@H]5c5ccoc5)O[C@H]1[C@]6(C4)O[C@]2(O)C(C)=CC3(C)C`, the GI50 in the assay with OVCAR-8 is > 100 µM (inactive); in the assay with UACC-62, > 100 µM (inactive); with T47D, > 100 µM (inactive); in the assay on SNB-75 it was 75.9 µM (inactive); with LOX IMVI, > 100 µM (inactive); in the assay on CCRF-CEM it was > 100 µM (inactive). Also, the GI50 in the assay on HOP-62, in the assay with OVCAR-3, with ACHN, in the assay with IGROV-1, with K562 and in the assay with M14 was > 100 µM (inactive) throughout. Besides, the GI50 in the assay with HL-60, in the assay on A549, in the assay with SK-MEL-2, with HCT-116 and in the assay on KM12 was > 100 µM (inactive) each time.
In the case of `CC1(C)O[C@@H](CP(c2ccccc2)c2ccccc2)[C@H](CP(c2ccccc2)c2ccccc2)O1`, the GI50 in the assay on OVCAR-8 is 4.06 µM (inactive); in the assay with T47D, 3.76 µM (inactive); in the assay on SNB-75, 6.55 µM (inactive); with LOX IMVI it was 1.82 µM (inactive); with CCRF-CEM it was 2.4 µM (inactive); with HOP-62, 15.1 µM (inactive). Besides, the GI50 was 0.384 µM (active) with OVCAR-3; 15.2 µM (inactive) in the assay on ACHN; 2.33 µM (inactive) in the assay with IGROV-1; 4.03 µM (inactive) in the assay with NCI-H460; 5.94 µM (inactive) in the assay on M14; 2.93 µM (inactive) with A549. Besides, the GI50 was 1.84 µM (inactive) in the assay with HCT-116, 12.6 µM (inactive) in the assay on A498 and 2.85 µM (inactive) in the assay with KM12.
With `CCOC(=O)c1nc2ccccc2nc1Nc1ccc(Cl)c(Cl)c1`, the GI50 in the assay with OVCAR-8 was 29.9 µM (inactive); with UACC-62, 25.6 µM (inactive); in the assay on T47D it was 60.8 µM (inactive); in the assay on SNB-75 it was 20.9 µM (inactive); in the assay on CCRF-CEM, > 10 µM (inactive); with HOP-62, 30.4 µM (inactive). For the same compound, the GI50 is 59.3 µM (inactive) in the assay on OVCAR-3; 76.7 µM (inactive) with ACHN; 32.5 µM (inactive) in the assay with IGROV-1; 76.7 µM (inactive) in the assay on K562; 11 µM (inactive) in the assay on NCI-H460; 57.8 µM (inactive) with M14. In addition, the GI50 in the assay with HL-60 is 30.8 µM (inactive); in the assay on A549, 59.4 µM (inactive); in the assay on SK-MEL-2 it was 89.7 µM (inactive); with HCT-116, 29 µM (inactive); with KM12, > 100 µM (inactive).
As to `Cc1ccc(O)c(-c2cc(-c3ccccc3)nc(/N=C\c3ccccc3)n2)c1`, the GI50 in the assay with OVCAR-8 was 20.4 µM (inactive); with UACC-62 it was 8.17 µM (inactive); in the assay with T47D, 7.69 µM (inactive); in the assay with SNB-75, 15.3 µM (inactive); in the assay on LOX IMVI, 21.8 µM (inactive); with CCRF-CEM, 18.6 µM (inactive). The GI50 in the assay on HOP-62 was 18.1 µM (inactive); with OVCAR-3 it was 23.7 µM (inactive); in the assay with ACHN, 13.1 µM (inactive); in the assay on IGROV-1, 16.6 µM (inactive); in the assay on K562, 45.6 µM (inactive); in the assay with NCI-H460 it was 17.9 µM (inactive). Moreover, the GI50 in the assay on M14 was > 100 µM (inactive); in the assay on HL-60, 35.2 µM (inactive); with A549, 23.1 µM (inactive); in the assay with SK-MEL-2, 25.8 µM (inactive); in the assay with HCT-116, 28.4 µM (inactive); with KM12, 17.5 µM (inactive).

Values taken from ChEMBL document CHEMBL1201862, “PubChem BioAssay data set” (2004).
